Data on 22 compounds can be found in patent US11053218B2, “3-(1-oxoisoindolin-2-yl)piperidine-2,6-dione derivatives and uses thereof” (Novartis AG, priority 2017, dated 2021).

Read-outs that look alike come from different tables or passages of the source.

One experiment deals with IKZF2 (Homo sapiens, UniProt Q96SW2+Q9UKS7). Description: Prolabel quantification of IKZF2 protein levels in 293GT cells. Type of experiment: cell-based. To be noted: 293GT cells; for inhibition at 10 µM: read-out: IKZF2 % protein reduction at 10 μM, 24 h; for DC50: Prolabel assay, read-out: IKZF2 EC50. As for the experimental part:
(§1) The Prolabel system from DiscoverX was used to develop high-throughput and quantitative assays to measure changes in IKZF1, IKZF2 and GSPT1 protein levels in response to compounds. The prolabel tag was derived from the alpha fragment of beta galactosidase and has the following protein sequence: mssnslavvlqrrdwenpgvtqlnrlaahppfaswrnseeartdrpsqqlrslnge. The complementary fragment of beta-galactosidase (from DiscoverX), is added to the prolabel tag to form an active beta galactosidase enzyme whose activity can be precisely measured. In this way, the levels of a fusion protein with the prolabel tag can be quantified in cell lysates.
(§2) Lentiviral vectors, based on the Invitrogen pLenti6.2/V5 DEST backbone, were constructed that placed the prolabel tag upstream of IKZF1, IKZF2 or GSPT1 and expressed the fusion protein from a CMV promoter.
(§3) To ensure moderate and consistent expression of the prolabel fusion proteins across all cells in the population, stable cell lines were constructed from cells expressing a single copy of the construct. Lentivirus packaged with the constructs was made using the Virapower kit from Invitrogen.
(§4) The levels of prolabel tagged fusion proteins in compound treated cell lines were measured as follows:
(§5) Day 1, Cells were diluted to 1.0×10^6 cells/ml in normal growth medium. 17.5 μL of cells were plated in each well of a solid white 384 well plate. Plates were incubated overnight in a 37° C. tissue culture incubator.
(§6) Day 2, Serial dilutions of compounds were made in 384 well plates from 10 mM stocks. 15 μL of DMSO was added to each well of a 384 well plate. In the first column 15 μL of stock compound was added. The solution was mixed and 15 μL was transferred to the next column. This was repeated until 20 two-fold dilutions were prepared. 2.5 μL of diluted compounds were transferred into 60 μL of cell culture medium in another 384 well plate, and mixed well. 2.5 μL of this mixture was added to the plated cells. The final DMSO concentration was 0.5% and the highest concentration of compound was 50 μM. Plates were incubated overnight (e.g., about 14 h, 18 h, or 24 h) in a 37° C. tissue culture incubator.
(§7) Day 3, Plates were removed from the incubator and allowed to equilibrate at rt for 30 minutes. Prolabel substrate (DiscoverX PathHunter Prolabel Detection Kit, User manual: 93-0180) was added as described by the manufacturers protocols. Plates were incubated at rt for three hours and luminescence was read using an Envision reader (Perkin Elmer) Data was analyzed and visualized using the Spotfire software package.

The target in another experiment is IKZF1 (Homo sapiens, UniProt Q13422+Q96SW2). Put plainly: Prolabel quantification of IKZF1 protein levels in 293GT cells. Type of experiment: cell-based. To be noted: Prolabel assay, read-out: IKZF1 EC50. Here is the method: as §1, §2, §3, §4, §5, §6, §7
IKZF1, sequence (Q13422 whole entry): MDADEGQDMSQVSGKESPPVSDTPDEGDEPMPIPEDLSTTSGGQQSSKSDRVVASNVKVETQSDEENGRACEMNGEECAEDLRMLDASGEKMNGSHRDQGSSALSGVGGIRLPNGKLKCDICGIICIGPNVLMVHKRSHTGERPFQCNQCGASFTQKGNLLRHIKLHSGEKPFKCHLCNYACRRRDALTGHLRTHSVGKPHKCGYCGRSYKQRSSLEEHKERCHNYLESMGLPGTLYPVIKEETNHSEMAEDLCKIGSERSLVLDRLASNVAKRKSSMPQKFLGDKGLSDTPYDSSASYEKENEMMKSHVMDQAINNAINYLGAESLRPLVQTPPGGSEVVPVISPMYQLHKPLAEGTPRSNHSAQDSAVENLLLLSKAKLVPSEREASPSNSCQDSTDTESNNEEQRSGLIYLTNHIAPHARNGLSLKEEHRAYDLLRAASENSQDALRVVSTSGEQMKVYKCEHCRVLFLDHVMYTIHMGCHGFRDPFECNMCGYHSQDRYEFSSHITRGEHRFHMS
IKZF1, sequence (Q96SW2 whole entry): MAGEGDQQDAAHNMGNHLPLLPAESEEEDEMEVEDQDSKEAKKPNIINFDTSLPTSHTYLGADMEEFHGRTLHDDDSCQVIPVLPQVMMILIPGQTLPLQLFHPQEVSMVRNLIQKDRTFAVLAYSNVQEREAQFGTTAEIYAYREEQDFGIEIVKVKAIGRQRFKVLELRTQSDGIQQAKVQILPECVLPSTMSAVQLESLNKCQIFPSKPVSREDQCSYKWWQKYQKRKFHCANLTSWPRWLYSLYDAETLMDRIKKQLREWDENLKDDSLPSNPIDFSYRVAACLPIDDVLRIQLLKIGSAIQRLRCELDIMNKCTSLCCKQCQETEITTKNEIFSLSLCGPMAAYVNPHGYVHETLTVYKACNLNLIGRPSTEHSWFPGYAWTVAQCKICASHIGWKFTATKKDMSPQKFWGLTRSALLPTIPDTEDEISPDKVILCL
IKZF1, sequence (Q16531 whole entry partner): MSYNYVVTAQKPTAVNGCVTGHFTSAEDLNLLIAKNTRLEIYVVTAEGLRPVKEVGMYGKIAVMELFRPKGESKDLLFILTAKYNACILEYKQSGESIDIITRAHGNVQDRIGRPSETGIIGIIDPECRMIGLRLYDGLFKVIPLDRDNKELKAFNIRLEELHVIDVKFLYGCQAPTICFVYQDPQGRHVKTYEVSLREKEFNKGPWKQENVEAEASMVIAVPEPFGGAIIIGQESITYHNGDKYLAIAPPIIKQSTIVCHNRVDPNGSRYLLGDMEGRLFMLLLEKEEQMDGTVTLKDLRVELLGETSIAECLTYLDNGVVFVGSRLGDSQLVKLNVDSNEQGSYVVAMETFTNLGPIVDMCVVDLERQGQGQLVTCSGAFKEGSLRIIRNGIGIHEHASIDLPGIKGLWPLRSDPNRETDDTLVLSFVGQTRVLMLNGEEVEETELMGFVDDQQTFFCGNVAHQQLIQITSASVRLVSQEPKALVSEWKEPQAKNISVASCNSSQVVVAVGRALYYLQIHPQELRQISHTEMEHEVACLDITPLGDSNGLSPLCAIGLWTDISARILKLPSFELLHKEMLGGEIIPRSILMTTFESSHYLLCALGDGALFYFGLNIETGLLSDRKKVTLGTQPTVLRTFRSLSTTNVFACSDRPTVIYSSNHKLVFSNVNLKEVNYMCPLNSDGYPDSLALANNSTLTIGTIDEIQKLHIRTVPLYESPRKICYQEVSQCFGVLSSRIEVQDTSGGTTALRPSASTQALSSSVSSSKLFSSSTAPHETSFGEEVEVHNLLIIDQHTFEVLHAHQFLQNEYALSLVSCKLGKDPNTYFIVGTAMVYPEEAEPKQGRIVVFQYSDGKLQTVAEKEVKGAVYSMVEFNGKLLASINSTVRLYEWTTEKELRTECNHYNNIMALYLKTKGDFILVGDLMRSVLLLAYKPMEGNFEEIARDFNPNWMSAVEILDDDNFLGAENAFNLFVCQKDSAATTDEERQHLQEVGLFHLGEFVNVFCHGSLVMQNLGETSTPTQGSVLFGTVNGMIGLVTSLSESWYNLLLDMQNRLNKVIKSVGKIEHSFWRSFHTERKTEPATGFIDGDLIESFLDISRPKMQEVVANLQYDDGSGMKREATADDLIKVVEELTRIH

IKZF2, sequence (Q9UKS7 whole entry, the tested form may be a part): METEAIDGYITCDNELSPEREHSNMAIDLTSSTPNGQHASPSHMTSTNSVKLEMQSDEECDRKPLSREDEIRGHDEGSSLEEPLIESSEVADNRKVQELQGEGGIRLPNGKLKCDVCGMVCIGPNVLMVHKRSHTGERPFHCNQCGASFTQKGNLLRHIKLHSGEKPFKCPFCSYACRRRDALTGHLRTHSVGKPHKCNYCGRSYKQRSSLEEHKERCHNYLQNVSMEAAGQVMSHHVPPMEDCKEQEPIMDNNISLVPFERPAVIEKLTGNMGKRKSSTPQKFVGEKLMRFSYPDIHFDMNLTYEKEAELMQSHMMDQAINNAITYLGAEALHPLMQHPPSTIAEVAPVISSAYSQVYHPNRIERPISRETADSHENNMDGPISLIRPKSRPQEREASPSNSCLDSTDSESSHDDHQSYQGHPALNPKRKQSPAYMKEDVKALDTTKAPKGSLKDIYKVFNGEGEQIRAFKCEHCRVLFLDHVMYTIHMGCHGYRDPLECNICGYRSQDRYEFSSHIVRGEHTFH
IKZF2, sequence (Q96SW2 whole entry, the tested form may be a part): as the sequence (Q96SW2 whole entry) above
IKZF2, sequence (Q16531 whole entry partner, the tested form may be a part): as the sequence (Q16531 whole entry partner) above

For the compound `CC(C)Sc1ccc(CN2CCC(c3ccc4c(c3)CN(C3CCC(=O)NC3=O)C4=O)CC2)cc1` (stereo not drawn) [Compound I-228, 3-(5-(1-(4-(isopropylthio)benzyl)piperidin-4-yl)-1-oxoisoindolin-2-yl)piperidine-2,6-dione], the inhibition at 10 µM on IKZF2 (24 h, 10 μM, 24 h) was found to be 70%. In addition, the DC50 was 10 nM at IKZF2 and over 30000 nM on IKZF1.
In the same order, the values of `CC(C)(C)c1ccc(C(=O)N2CCC(c3ccc4c(c3)CN(C3CCC(=O)NC3=O)C4=O)CC2)cc1` (stereo not drawn) [Compound I-242, 3-(5-(1-(4-(tert-butyl)benzoyl)piperidin-4-yl)-1-oxoisoindolin-2-yl)piperidine-2,6-dione] are 5%, over 30000 nM and over 30000 nM.
For the compound `Cc1cccc(CN2CCC(c3ccc4c(c3)CN(C3CCC(=O)NC3=O)C4=O)CC2)c1` (stereo not drawn) [Compound I-173, 3-(5-(1-(3-methylbenzyl)piperidin-4-yl)-1-oxoisoindolin-2-yl)piperidine-2,6-dione], on IKZF2 (10 μM, 24 h), the inhibition at 10 µM worked out at 65%. Besides, the figures for the DC50 on IKZF2 and on IKZF1 were 74 nM and over 30000 nM, respectively.
For the compound `O=C1CCC(N2Cc3cc(C4CCN(Cc5cc(C6CC6)[nH]n5)CC4)ccc3C2=O)C(=O)N1` (stereo not drawn) [Compound I-146, 3-(5-(1-((5-cyclopropyl-1H-pyrazol-3-yl)methyl)piperidin-4-yl)-1-oxoisoindolin-2-yl)piperidine-2,6-dione], at IKZF2 (24 h, 10 μM, 24 h), the inhibition at 10 µM turned out to be 60%. In addition, the DC50 at IKZF2 is 170 nM; at IKZF1, over 30000 nM.
Turning to `O=C1CCC(N2Cc3cc(C4CCN(Cc5cc(-c6ccccn6)n[nH]5)CC4)ccc3C2=O)C(=O)N1` (stereo not drawn) [Compound I-201, 3-(1-oxo-5-(1-((3-(pyridin-2-yl)-1H-pyrazol-5-yl)methyl)piperidin-4-yl)isoindolin-2-yl)piperidine-2,6-dione], on IKZF2 (24 h, 10 μM, 24 h), the inhibition at 10 µM worked out at 75%. Moreover, the DC50 is 33 nM on IKZF2 and over 30000 nM on IKZF1.
In the same order, the values of `O=C1CCC(N2Cc3cc(C4CCN(CC5CCC5)CC4)ccc3C2=O)C(=O)N1` (stereo not drawn) [Compound I-5, 3-(5-(1-(cyclobutylmethyl)piperidin-4-yl)-1-oxoisoindolin-2-yl)piperidine-2,6-dione] are 60%, 27 nM and over 30000 nM.
As for `O=C1CCC(N2Cc3cc(C4CCN(Cc5cccc6cccnc56)CC4)ccc3C2=O)C(=O)N1` (stereo not drawn) [Compound I-114, 3-(1-oxo-5-(1-(quinolin-8-ylmethyl)piperidin-4-yl)isoindolin-2-yl)piperidine-2,6-dione], the inhibition at 10 µM on IKZF2 (24 h, 10 μM, 24 h) was found to be 40%. Further, the DC50 was 29 nM at IKZF2 and over 50000 nM at IKZF1.
As for `O=C1CCC(N2Cc3cc(C4CCN(Cc5ccccc5C5CC5)CC4)ccc3C2=O)C(=O)N1` (stereo not drawn) [Compound I-104, 3-(5-(1-(2-cyclopropylbenzyl)piperidin-4-yl)-1-oxoisoindolin-2-yl)piperidine-2,6-dione], the inhibition at 10 µM at IKZF2 (24 h, 10 μM, 24 h) amounted to 60%. In addition, the DC50 was 5 nM on IKZF2 and over 30000 nM on IKZF1.
As to `O=C1CCC(N2Cc3cc(C4CCN(Cc5ccc6cc[nH]c6n5)CC4)ccc3C2=O)C(=O)N1` (stereo not drawn) [Compound I-140, 3-(5-(1-((1H-pyrrolo[2,3-b]pyridin-6-yl)methyl)piperidin-4-yl)-1-oxoisoindolin-2-yl)piperidine-2,6-dione], the inhibition at 10 µM on IKZF2 (24 h, 10 μM, 24 h) amounted to 80%. The DC50 on IKZF2 is 19 nM; on IKZF1, over 30000 nM.
For `N#Cc1cccc(CN2CCC(c3ccc4c(c3)CN(C3CCC(=O)NC3=O)C4=O)CC2)n1` (stereo not drawn) [Compound I-217, 6-((4-(2-(2,6-dioxopiperidin-3-yl)-1-oxoisoindolin-5-yl)piperidin-1-yl)methyl)picolinonitrile], at IKZF2 (24 h, 10 μM, 24 h), the inhibition at 10 µM is 40%. Further, the results for the DC50 at IKZF2 and on IKZF1 were 8 nM and over 30000 nM, respectively.
For `CCOc1ccc(CN2CCC(c3ccc4c(c3)CN(C3CCC(=O)NC3=O)C4=O)CC2)cc1` (stereo not drawn) [Compound I-287, 3-(5-(1-(4-ethoxybenzyl)piperidin-4-yl)-1-oxoisoindolin-2-yl)piperidine-2,6-dione] the same measures were 70%, 18 nM and over 30000 nM.
Regarding `O=C1CCC(N2Cc3cc(C4CCN(Cc5cscn5)CC4)ccc3C2=O)C(=O)N1` (stereo not drawn) [Compound I-238, 3-(1-oxo-5-(1-(thiazol-4-ylmethyl)piperidin-4-yl)isoindolin-2-yl)piperidine-2,6-dione], the inhibition at 10 µM at IKZF2 (24 h, 10 μM, 24 h) amounted to 60%. Besides, the DC50 was 110 nM at IKZF2 and over 25000 nM at IKZF1.
As to `O=C1CCC(N2Cc3cc(C4CCN(Cc5c[nH]nc5-c5ccccc5)CC4)ccc3C2=O)C(=O)N1` (stereo not drawn) [Compound I-148, 3-(1-oxo-5-(1-((3-phenyl-1H-pyrazol-4-yl)methyl)piperidin-4-yl)isoindolin-2-yl)piperidine-2,6-dione], the inhibition at 10 µM on IKZF2 (24 h, 10 μM, 24 h) was found to be 70%. For the same compound, the values for the DC50 on IKZF2 and on IKZF1 were 39 nM and over 30000 nM, respectively.
Regarding `O=C1CCC(N2Cc3cc(C4CCN(Cc5ccc(C(F)(F)F)cc5)CC4)ccc3C2=O)C(=O)N1` (stereo not drawn) [Compound I-76, 3-(1-oxo-5-(1-(4-(trifluoromethyl)benzyl)piperidin-4-yl)isoindolin-2-yl)piperidine-2,6-dione], the inhibition at 10 µM on IKZF2 (24 h, 10 μM, 24 h) was 75%. Also, the values for the DC50 on IKZF2 and at IKZF1 were 17 nM and over 30000 nM, respectively.
As for `CC1(C)CN(Cc2ccccc2)CCC1c1ccc2c(c1)CN(C1CCC(=O)NC1=O)C2=O` (stereo not drawn) [Compound I-185, 3-(5-(1-benzyl-3,3-dimethylpiperidin-4-yl)-1-oxoisoindolin-2-yl)piperidine-2,6-dione], at IKZF2 (24 h, 10 μM, 24 h), the inhibition at 10 µM is 20%. The DC50 on IKZF2 and at IKZF1 was over 30000 nM throughout.
For the compound `N#CCOc1ccc(CN2CCC(c3ccc4c(c3)CN(C3CCC(=O)NC3=O)C4=O)CC2)cc1` (stereo not drawn) [Compound I-218, 2-(4-((4-(2-(2,6-dioxopiperidin-3-yl)-1-oxoisoindolin-5-yl)piperidin-1-yl)methyl)phenoxy)acetonitrile], on IKZF2 (24 h, 10 μM, 24 h), the inhibition at 10 µM stood at 60%. Also, the DC50 is 4 nM on IKZF2 and over 30000 nM at IKZF1.
With `O=C1CCC(N2Cc3cc(C4CCN(Cc5ccc6c(c5)CCCC6)CC4)ccc3C2=O)C(=O)N1` (stereo not drawn) [Compound I-175, 3-(1-oxo-5-(1-((5,6,7,8-tetrahydronaphthalen-2-yl)methyl)piperidin-4-yl)isoindolin-2-yl)piperidine-2,6-dione], at IKZF2 (24 h, 10 μM, 24 h), the inhibition at 10 µM was determined as 50%. The DC50 on IKZF2 was 5 nM; on IKZF1 it was over 50000 nM.
`O=C1CCC(N2Cc3cc(C4CCCN(Cc5ccccc5)CC4)ccc3C2=O)C(=O)N1` (single isomer, unassigned) [Compound I-273, 3-(5-(1-benzylazepan-4-yl)-1-oxoisoindolin-2-yl)piperidine-2,6-dione]: the “IKZF2 % protein reduction at 10 μM, 24 h” value at IKZF2 (10 μM, 24 h) turned out to be 20%. Further, the DC50 at IKZF2 is 210 nM; on IKZF1, over 30000 nM.
With `O=C1CCC(N2Cc3cc(C4CCN(Cc5ccnn5-c5ccccc5)CC4)ccc3C2=O)C(=O)N1` (stereo not drawn) [Compound I-286, 3-(1-oxo-5-(1-((1-phenyl-1H-pyrazol-5-yl)methyl)piperidin-4-yl)isoindolin-2-yl)piperidine-2,6-dione], on IKZF2 (24 h, 10 μM, 24 h), the inhibition at 10 µM turned out to be 40%. Besides, the DC50 on IKZF2 was 720 nM; at IKZF1, over 30000 nM.
On to `N#Cc1ccccc1CN1CCC(c2ccc3c(c2)CN(C2CCC(=O)NC2=O)C3=O)CC1` (stereo not drawn) [Compound I-38, 2-((4-(2-(2,6-dioxopiperidin-3-yl)-1-oxoisoindolin-5-yl)piperidin-1-yl)methyl)benzonitrile], for which the inhibition at 10 µM at IKZF2 (24 h, 10 μM, 24 h) was determined as 55%. In addition, the figures for the DC50 at IKZF2 and on IKZF1 were 41 nM and over 30000 nM, respectively.
Regarding `CC(C)c1ccc(CN2CCC(c3ccc4c(c3)CN(C3CCC(=O)NC3=O)C4=O)CC2)cc1` (stereo not drawn) [Compound I-45, 3-(5-(1-(4-isopropylbenzyl)piperidin-4-yl)-1-oxoisoindolin-2-yl)piperidine-2,6-dione], the inhibition at 10 µM on IKZF2 (24 h, 10 μM, 24 h) came out at 80%. The results for the DC50 at IKZF2 and on IKZF1 were 8 nM and over 30000 nM, respectively.
With `O=C1CCC(N2Cc3cc(C4CCN(CCc5ccccc5)CC4)ccc3C2=O)C(=O)N1` (stereo not drawn) [Compound I-14, 3-(1-oxo-5-(1-phenethylpiperidin-4-yl)isoindolin-2-yl)piperidine-2,6-dione], the inhibition at 10 µM at IKZF2 (24 h, 10 μM, 24 h) is 65%. Also, the DC50 is 14 nM at IKZF2 and over 30000 nM on IKZF1.
